Assay results as given in the NIST ThermoML archive (doi:10.1016/j.tca.2012.03.022).
± gives the expanded uncertainty stated by the source.

Assay: molar heat capacity at constant pressure; wn = mass fraction of the nth substance listed
Conditions: 101 kPa, Crystal, Small sample (50 mg) DSC

[W] [tungsten] + [Cu]
molar heat capacity at constant pressure [J/K/mol]
Conditions	295.15 K	373.15 K	473.15 K	573.15 K	673.15 K
w1 = 0.728	25.9 ± 1.1	26.59 ± 1.1	27.11 ± 1.2	27.43 ± 1.2	27.89 ± 1.2
w1 = 0.761	24.67 ± 1.1	25.12 ± 1.1	25.61 ± 1.1	25.91 ± 1.1	26.04 ± 1.1
w1 = 0.837	26.96 ± 1.1	27.52 ± 1.2	28.07 ± 1.2	28.41 ± 1.2	28.66 ± 1.2
w1 = 0.889	25.66 ± 1.1	26.21 ± 1.1	26.68 ± 1.1	26.95 ± 1.1	27.19 ± 1.2
w1 = 0.913	25.81 ± 1.1	26.08 ± 1.1	26.45 ± 1.1	26.75 ± 1.1	26.88 ± 1.1
